{"source": "patent US20240325328A1", "about": "“TREATMENT OF BRAIN […] CNS […] ILLUDINS OR HYDROXYLUREAMETHYL ACYLFULVENE” (Lantern Pharma Inc., priority 2021, published 2024)", "key": {"[1]": {"system": "blood brain barrier in vitro 3D model (co-cultured brain endothelial cells, pericytes and astrocytes)", "assay": "Impact on cell viability and BBB integrity in 3D BBB model", "type": "cell-based, human", "settings": "3D BBB model, compound treatment", "text": "(§1) Hydroxy UreaMethyl Acylfulvene having a negative chirality or LP-184 permeates the blood brain barrier in vitro 3D model, which closely recapitulates the human blood brain barrier. This model mimics transport properties of the BBB due to the formation of tight junctions, higher expression of specific carriers, and/or great cell viability. This 3D in vitro model of the BBB created by co-culturing brain endothelial cells, with pericytes and astrocytes layered in an insert, improves endothelial cell polarization, and enhances the formation of tight junctions, provides better endothelial cell-to-cell contact that is important for barrier development, and prevents the dilution of secreted neurotrophic factors. These conditions collectively lead to the development of an in vitro model that mimics the BBB.\n(§2) This assay leverages the novel 3D BBB model that allows studying both compound transport across the barrier as well as the effect of compounds on the structure and function of the BBB. […] LP-184 was as effective as the standard of care drug TMZ in penetrating the blood brain barrier. Apparent BBB permeability measured for TMZ was 1.72*10^−4 cm/s at 30 minutes and for LP-184 was 1.53*10^−4 cm/s at 30 minutes (FIG. 1)."}, "[2]": {"system": "blood brain barrier in vitro 3D model (co-cultured brain endothelial cells, pericytes and astrocytes)", "assay": "Apparent BBB permeability in 3D in vitro blood brain barrier model", "type": "in vitro ADME, human", "settings": "3D BBB model, at 30 minutes", "text": "as §1, §2"}, "[3]": {"assay": "Pharmacokinetics of LP-184 in plasma, normal brain and brain tumor", "type": "in vivo, mice"}, "[4]": {"system": "3D models of patient-derived xenograft (PDX) derived brain metastases of primary lung and breast cancers", "assay": "Potency in 3D models of PDX-derived brain metastases", "type": "cell-based", "settings": "72-hour treatment period, various brain metastasis models, range over models and testing conditions"}, "[5]": {"assay": "Apparent BBB permeability in 3D in vitro blood brain barrier model", "type": "in vitro ADME, human", "settings": "human, 3D BBB model", "text": "as §1, §2"}, "[6]": {"settings": "Contralateral Normal Brain, 4 mg/kg IV"}, "[7]": {"settings": "Peritumoral Normal Brain, 4 mg/kg IV"}}, "data": [{"smiles": "CC1=C(CN(O)C(N)=O)C2=C(C)C3(CC3)[C@@](C)(O)C(=O)C2=C1", "note": "[LP-184, Hydroxy UreaMethyl Acylfulvene]", "values": [{"measurement": "BBB integrity", "setting": "[1]", "value": "BBB integrity was not compromised"}, {"measurement": "Impact on cell viability", "setting": "[1]", "value": "insignificant impact on cell viability"}, {"measurement": "Apparent BBB permeability", "setting": "[2]", "value": "1.53*10^−4 cm/s"}, {"measurement": "Brain Tissue/Plasma Ratio", "setting": "[3]; Brain Tumor, 4 mg/kg IV", "value": 0.200}, {"measurement": "Half-Life", "setting": "[3]; Brain Tumor, 4 mg/kg IV", "value": 16.9, "unit": "min"}, {"measurement": "Tmax", "setting": "[3]; Brain Tumor, 4 mg/kg IV", "value": 5, "unit": "min"}, {"measurement": "Brain Tissue/Plasma Ratio", "setting": "[3]; [6]", "value": 0.077}, {"measurement": "Half-Life", "setting": "[3]; [6]", "value": 26.6, "unit": "min"}, {"measurement": "Tmax", "setting": "[3]; [6]", "value": 15, "unit": "min"}, {"measurement": "AUC0-t", "setting": "[3]; Contralateral Normal Brain, 4 mg/kg IV, Mean ± SEM", "value": "123 ± 15.9", "unit": "ng·h/g"}, {"measurement": "Brain Tissue/Plasma Ratio", "setting": "[3]; [7]", "value": 0.103}, {"measurement": "Half-Life", "setting": "[3]; [7]", "value": 23, "unit": "min"}, {"measurement": "Tmax", "setting": "[3]; [7]", "value": 15, "unit": "min"}, {"measurement": "AUC0-t", "setting": "[3]; Peritumoral Normal Brain, 4 mg/kg IV, Mean ± SEM", "value": "165 ± 11.6", "unit": "ng·h/g"}, {"measurement": "Half-Life", "setting": "[3]; Plasma, 4 mg/kg IV", "value": 14.2, "unit": "min"}, {"measurement": "Tmax", "setting": "[3]; Plasma, 4 mg/kg IV", "value": 5, "unit": "min"}, {"measurement": "AUC0-t", "setting": "[3]; Plasma, 4 mg/kg IV, Mean ± SEM", "value": "1592 ± 48.7", "unit": "ng·h/mL"}, {"measurement": "Cmax", "setting": "[3]; Plasma, 4 mg/kg IV, Mean ± SEM", "value": "3438 ± 125^ ng/ml"}, {"measurement": "brain tumor exposure relative to plasma", "setting": "[3]; based on AUC", "value": "~20", "unit": "%"}, {"measurement": "brain tumor exposure compared to normal brain", "setting": "[3]; higher in brain tumor", "value": "~2", "unit": "fold"}, {"measurement": "clearance", "setting": "[3]; mice with tumors", "value": 39.82, "unit": "mL/min/kg"}, {"measurement": "clearance", "setting": "[3]; non-tumored mice", "value": 88.07, "unit": "mL/min/kg"}, {"measurement": "IC50", "setting": "[4]", "value": "88 to 4280", "unit": "nM"}]}, {"smiles": "Cn1nnc2c(C(N)=O)ncn2c1=O", "note": "[TMZ, Temozolomide, reference compound]", "values": [{"measurement": "Papp at 30 min", "setting": "[5]", "value": 172, "unit": "×10⁻⁶ cm/s"}]}]}
